Results on 31 compounds are retold here after patent publication US11014929B2, “Pyrazolopyrimidine compounds and uses thereof” (Incyte Corporation, priority 2016, dated 2021).

This experiment concerns the target HPK1 (Homo sapiens (Human), UniProt Q92918). Nature of the experiment: HPK1 Kinase Binding Assay. The settings on record: LanthaScreen tracer 222 binding, active HPK1, one hour incubation at 25° C. On the procedure: A stock solution of 1 mM test compound was prepared in DMSO. The compound plate was prepared by 3-fold and 11-point serial dilutions. 0.1 μL of the compound in DMSO was transferred from the compound plate to the white 384 well polystyrene plates. The assay buffer contained 50 mM HEPES, pH 7.5, 0.01% Tween-20, 5 mM MgCl2, 0.01% BSA, and 5 mM DTT. 5 μl of 4 nM active HPK1 (SignalChem M23-11G) prepared in the buffer was added to the plate. The enzyme concentration given was based on the given stock concentration reported by the vender. 5 μl of 18 nM tracer 222 (ThermoFisher PV6121) and 4 nM LanthaScreen Eu-Anti GST antibody (ThermoFisher PV5595) were added. After one hour incubation at 25° C., the plates were read on a PHERAstar FS plate reader (BMG Labtech). Ki values were determined.
In general terms: Time-resolved FRET reads energy transfer from a long-lived donor to a nearby acceptor.

HPK1, sequence (Q92918 1-346): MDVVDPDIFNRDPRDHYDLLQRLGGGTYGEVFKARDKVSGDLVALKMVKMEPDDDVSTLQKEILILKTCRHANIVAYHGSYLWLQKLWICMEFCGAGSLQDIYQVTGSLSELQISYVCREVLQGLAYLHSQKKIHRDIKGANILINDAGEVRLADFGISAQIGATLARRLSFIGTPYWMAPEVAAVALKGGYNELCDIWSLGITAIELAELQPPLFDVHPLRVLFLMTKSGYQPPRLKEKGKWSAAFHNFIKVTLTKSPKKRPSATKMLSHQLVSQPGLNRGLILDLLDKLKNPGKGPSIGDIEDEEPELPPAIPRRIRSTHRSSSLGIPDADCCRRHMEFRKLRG

Take `CN(C)CC(=O)Nc1cc(F)c(-c2ncc3[nH]nc(-c4cnn(C)c4)c3n2)c(F)c1` [Example 83, N-(3,5-Difluoro-4-(3-(1-methyl-1H-pyrazol-4-yl)-1H-pyrazolo[4,3-d]pyrimidin-5-yl)phenyl)-2-(dimethylamino)acetamide]: the Ki – broadly, the equilibrium dissociation constant of an inhibitor or competing ligand from its target – is not above 100 nM.
In the case of `COc1cccc(F)c1-c1ncc2[nH]nc(-c3ccc(CC#N)cc3)c2n1` [Example 34, 2-(4-(5-(2-Fluoro-6-methoxyphenyl)-1H-pyrazolo[4,3-d]pyrimidin-3-yl)phenyl)acetonitrile] it was not above 100 nM.
To `COc1c(-c2ncc3[nH]nc(-c4ccc(N5CCOCC5)nc4)c3n2)c(F)cc2c1C(N)CC2` (stereo not shown) [Example 119, 5-Fluoro-7-methoxy-6-(3-(6-morpholinopyridin-3-yl)-1H-pyrazolo[4,3-d]pyrimidin-5-yl)-2,3-dihydro-1H-inden-1-amine] belongs not above 100 nM.
In the case of `COc1ccncc1-c1ncc2[nH]nc(-c3ccc(N4CCN(C)CC4)cc3)c2n1` [Example 102, 5-(4-Methoxypyridin-3-yl)-3-(4-(4-methylpiperazin-1-yl)phenyl)-1H-pyrazolo[4,3-d]pyrimidine] it was not above 100 nM.
On to `NC1CCc2cc(F)c(-c3ncc4[nH]nc(-c5ccc(N6CCOCC6)nc5)c4n3)c(F)c21` (stereo not shown) [Example 118, 5,7-Difluoro-6-(3-(6-morpholinopyridin-3-yl)-1H-pyrazolo[4,3-d]pyrimidin-5-yl)-2,3-dihydro-1H-inden-1-amine], for which the Ki was not above 100 nM.
The compound `CNCc1cc(F)c(-c2ncc3[nH]nc(-c4ccc(N5CCN(C(C)=O)CC5)nc4)c3n2)c(C(F)(F)F)c1` [Example 77, 1-(4-(5-(5-(2-Fluoro-4-((methylamino)methyl)-6-(trifluoromethyl)phenyl)-1H-pyrazolo[4,3-d]pyrimidin-3-yl)pyridin-2-yl)piperazin-1-yl)ethanone] yielded a Ki not above 100 nM.
To `CN1CCN(c2ccc(-c3n[nH]c4cnc(-c5cccc6c5CCNC6)nc34)cc2)CC1` [Example 10, 5-(3-(4-(4-Methylpiperazin-1-yl)phenyl)-1H-pyrazolo[4,3-d]pyrimidin-5-yl)-1,2,3,4-tetrahydroisoquinoline] belongs not above 100 nM.
`Cc1c2c(cc(F)c1-c1ncc3[nH]nc(-c4ccc(N5CCN(C)CC5)cc4)c3n1)CCNC2` [Example 111, 6-Fluoro-8-methyl-7-(3-(4-(4-methylpiperazin-1-yl)phenyl)-1H-pyrazolo[4,3-d]pyrimidin-5-yl)-1,2,3,4-tetrahydroisoquinoline] showed a Ki not above 100 nM.
In the case of `CNCc1cc(F)c(-c2ncc3[nH]nc(-c4ccc(C5CCNCC5)cc4)c3n2)c(F)c1` [Example 65, 1-(3,5-Difluoro-4-(3-(4-(piperidin-4-yl)phenyl)-1H-pyrazolo[4,3-d]pyrimidin-5-yl)phenyl)-N-methylmethanamine] it was not above 100 nM; in that of `COc1ccncc1-c1ncc2[nH]nc(-c3ccc(N4CCN(C)CC4)nc3)c2n1` [Example 103, 5-(4-Methoxypyridin-3-yl)-3-(6-(4-methylpiperazin-1-yl)pyridin-3-yl)-1H-pyrazolo[4,3-d]pyrimidine], not above 100 nM.
To `COc1ccccc1-c1ncc2[nH]nc(-c3ccc(N4CCN(C)CC4)cc3)c2n1` [Example 3, 5-(2-Methoxyphenyl)-3-(4-(4-methylpiperazin-1-yl)phenyl)-1H-pyrazolo[4,3-d]pyrimidine] belongs not above 100 nM; to `CNCc1cc(F)c(-c2ncc3[nH]nc(-c4ccc(N5CCO[C@@H](COC)C5)nc4)c3n2)c(C(F)(F)F)c1` [Example 126, (R)-1-(3-Fluoro-4-(3-(6-(2-(methoxymethyl)morpholino)pyridin-3-yl)-1H-pyrazolo[4,3-d]pyrimidin-5-yl)-5-(trifluoromethyl)phenyl)-N-methylmethanamine], not above 100 nM.
`Cc1c2c(cc(F)c1-c1ncc3[nH]nc(-c4ccc(N5CCN(C)CC5)nc4)c3n1)CCNC2` [Example 110, 6-Fluoro-8-methyl-7-(3-(6-(4-methylpiperazin-1-yl)pyridin-3-yl)-1H-pyrazolo[4,3-d]pyrimidin-5-yl)-1,2,3,4-tetrahydroisoquinoline] had a Ki not above 100 nM.
In the case of `CNC1CCc2c1cc(F)c(-c1ncc3[nH]nc(-c4cnc(N5CCN(C)CC5)nc4)c3n1)c2F` (stereo not shown) [Example 114, 4,6-Difluoro-N-methyl-5-(3-(2-(4-methylpiperazin-1-yl)pyrimidin-5-yl)-1H-pyrazolo[4,3-d]pyrimidin-5-yl)-2,3-dihydro-1H-inden-1-amine] it was not above 100 nM; in that of `COc1cccc(F)c1-c1ncc2[nH]nc(-c3cccc(N4CCCC4)c3)c2n1` [Example 28, 5-(2-fluoro-6-methoxyphenyl)-3-(3-(pyrrolidin-1-yl)phenyl)-1H-pyrazolo[4,3-d]pyrimidine], 100 to 500 nM; in that of `CNC1CCc2cc(F)c(-c3ncc4[nH]nc(-c5ccc(N6CCOCC6)nc5)c4n3)c(F)c2C1` (stereo not shown) [Example 115, 6,8-Difluoro-N-methyl-7-(3-(6-morpholinopyridin-3-yl)-1H-pyrazolo[4,3-d]pyrimidin-5-yl)-1,2,3,4-tetrahydronaphthalen-2-amine], not above 100 nM.
In the case of `NC1CCCc2c1cc(F)c(-c1ncc3[nH]nc(-c4ccc(N5CCOCC5)nc4)c3n1)c2F` (stereo not shown) [Example 117, 5,7-Difluoro-6-(3-(6-morpholinopyridin-3-yl)-1H-pyrazolo[4,3-d]pyrimidin-5-yl)-1,2,3,4-tetrahydronaphthalen-1-amine] it was not above 100 nM; in that of `COc1cccc(F)c1-c1ncc2[nH]nc(-c3ccn(C)c(=O)c3)c2n1` [Example 49, 4-(5-(2-Fluoro-6-methoxyphenyl)-1H-pyrazolo[4,3-d]pyrimidin-3-yl)-1-methylpyridin-2(1H)-one], not above 100 nM.
To `CN1CCN(Cc2ccc(-c3n[nH]c4cnc(-c5c(F)ccc6c5CCNC6)nc34)cc2)CC1` [Example 106, 6-Fluoro-5-(3-(4-((4-methylpiperazin-1-yl)methyl)phenyl)-1H-pyrazolo[4,3-d]pyrimidin-5-yl)-1,2,3,4-tetrahydroisoquinoline] belongs not above 100 nM; to `COc1cccc(F)c1-c1ncc2[nH]nc(-c3ccc(N4CCCCC4)cc3)c2n1` [Example 40, 5-(2-Fluoro-6-methoxyphenyl)-3-(4-(piperidin-1-yl)phenyl)-1H-pyrazolo[4,3-d]pyrimidine], not above 100 nM; to `COc1cccc(F)c1-c1ncc2[nH]nc(-c3ccc(CN)cc3)c2n1` [Example 41, (4-(5-(2-Fluoro-6-methoxyphenyl)-1H-pyrazolo[4,3-d]pyrimidin-3-yl)phenyl)methanamine], not above 100 nM.
Consider `COc1cccc(F)c1-c1ncc2[nH]nc(-c3ccnc(N4CCNCC4)c3)c2n1` [Example 50, 5-(2-Fluoro-6-methoxyphenyl)-3-(2-(piperazin-1-yl)pyridin-4-yl)-1H-pyrazolo[4,3-d]pyrimidine], for which the Ki was not above 100 nM.
To `CCN1CCN(c2ccc(-c3n[nH]c4cnc(-c5c(F)cc(CNC)cc5F)nc34)cc2)CC1` [Example 67, 1-(4-(3-(4-(4-Ethylpiperazin-1-yl)phenyl)-1H-pyrazolo[4,3-d]pyrimidin-5-yl)-3,5-difluorophenyl)-N-methylmethanamine] belongs not above 100 nM; to `CNCc1cc(C)c(-c2ncc3[nH]nc(-c4cnn(C)c4)c3n2)c(F)c1` [Example 78, 1-(3-Fluoro-5-methyl-4-(3-(1-methyl-1H-pyrazol-4-yl)-1H-pyrazolo[4,3-d]pyrimidin-5-yl)phenyl)-N-methylmethanamine], not above 100 nM.
To `COc1cccc(F)c1-c1ncc2[nH]nc(-c3cnn(-c4ccccc4)c3)c2n1` [Example 48, 5-(2-Fluoro-6-methoxyphenyl)-3-(1-phenyl-1H-pyrazol-4-yl)-1H-pyrazolo[4,3-d]pyrimidine] belongs not above 100 nM.
In the case of `CNC1CCc2c1cc(F)c(-c1ncc3[nH]nc(-c4ccc(N5CCOCC5)nc4)c3n1)c2F` (stereo not shown) [Example 113, 4,6-Difluoro-N-methyl-5-(3-(6-morpholinopyridin-3-yl)-1H-pyrazolo[4,3-d]pyrimidin-5-yl)-2,3-dihydro-1H-inden-1-amine] it was not above 100 nM; in that of `Cc1c2c(cc(F)c1-c1ncc3[nH]nc(-c4ccc(N5CCOCC5)nc4)c3n1)CCNC2` [Example 109, 4-(5-(5-(6-Fluoro-8-methyl-1,2,3,4-tetrahydroisoquinolin-7-yl)-1H-pyrazolo[4,3-d]pyrimidin-3-yl)pyridin-2-yl)morpholine], not above 100 nM; in that of `COc1cccc(-c2n[nH]c3cnc(-c4c(F)cccc4OC)nc23)c1` [Example 19, 5-(2-Fluoro-6-methoxyphenyl)-3-(3-methoxyphenyl)-1H-pyrazolo[4,3-d]pyrimidine], not above 100 nM.
In turn, `CN1CCN(c2ccc(-c3n[nH]c4cnc(-c5c(F)ccc6c5CCNC6)nc34)cc2)CC1` [Example 56, 6-Fluoro-5-(3-(4-(4-methylpiperazin-1-yl)phenyl)-1H-pyrazolo[4,3-d]pyrimidin-5-yl)-1,2,3,4-tetrahydroisoquinoline] returned a Ki not above 100 nM.
`CNCc1cc(F)c(-c2ncc3[nH]nc(-c4ccc(N5CCN(CC(C)(C)O)CC5)nc4)c3n2)c(F)c1` [Example 70, 1-(4-(5-(5-(2,6-Difluoro-4-((methylamino)methyl)phenyl)-1H-pyrazolo[4,3-d]pyrimidin-3-yl)pyridin-2-yl)piperazin-1-yl)-2-methylpropan-2-ol]: the Ki was not above 100 nM.
To `CNCc1cc(F)c(-c2ncc3[nH]nc(-c4ccc(N5CCN(CCOC)CC5)cc4)c3n2)c(F)c1` [Example 123, 1-(3,5-Difluoro-4-(3-(4-(4-(2-methoxyethyl)piperazin-1-yl)phenyl)-1H-pyrazolo[4,3-d]pyrimidin-5-yl)phenyl)-N-methylmethanamine] belongs not above 100 nM.
